Literature values as cited in patent US8680078B2, “Stable ophthalmic formulations” (Medivis SRL, priority 2008, dated 2014).
Like-named read-outs stand apart in the source and are kept apart here.

Key:
[1] = pH of 5.6

SMILES | time taken by the concentration of latanoprost to drop to 90% of an initial content (50° C.) [h] | time taken by the concentration of latanoprost to drop to 90% of an initial content (75° C.) [h] | maximum solubility [1]
CC(C)OC(=O)CCC/C=C\C[C@@H]1[C@@H](CC[C@@H](O)CCc2ccccc2)[C@H](O)C[C@@H]1O [Latanoprost, latanoprost] | 198 | 32 | –
CCN[C@H]1C[C@H](C)S(=O)(=O)c2sc(S(N)(=O)=O)cc21.Cl [dorzolamide hydrochloride] | – | – | about 50 mg/mL
